ChEMBL document CHEMBL3124792, “Discovery and preclinical characterization of the cyclopropylindolobenzazepine BMS-791325, a potent allosteric inhibitor of the hepatitis C virus NS5B polymerase” (J Med Chem, 2014)
In brackets after ≈: the same amount, converted by molar mass.

Assays:
Hepatitis C virus [1] = assay: Antiviral activity against Hepatitis C virus Con1 genotype 1b infected in human HuH7 cells after 3 days by FRET assay in presence of 40% human serum; assay type: functional, organism-based, Hepacivirus hominis; conditions: isolate Con1, Huh-7, 72 h
[2] = Drug uptake in rat liver at 5 mg/kg, iv after 6 hrs; assay type: ADME, organism-based; design: dose 5 mg/kg, route intravenous; conditions: read-out: Drug uptake
Cytochrome P450 2D6 = Cytochrome P450 2D6 (Homo sapiens, UniProt P10635); assay: Inhibition of CYP2D6 in human liver microsomes after 30 mins in presence of NADPH; assay type: ADME
Liver microsome [3] = conditions: human, microsomes
[4] = Solubility of the compound in amorphous form in phosphate buffer at pH 6.5; assay type: physicochemical
[5] = Drug uptake in rat liver at 10 mg/kg, po after 6 hrs; assay type: ADME, organism-based; design: dose 10 mg/kg, route oral; conditions: read-out: Drug uptake
Liver microsome [6] = conditions: rat, microsomes
HepG2 = assay: Cytotoxicity against human HepG2 cells; assay type: cell-based
[7] = Plasma concentration in rat at 10 mg/kg, po after 6 hrs; assay type: ADME, organism-based; design: dose 10 mg/kg, route oral
[8] = AUC (0 to 6 hrs) in rat at 10 mg/kg, po; assay type: ADME, organism-based; design: time < 6 hr, dose 10 mg/kg, route oral; conditions: plasma
[9] = Cytotoxicity against human HuH7 cells by Alamar blue assay; assay type: cell-based; conditions: Huh-7 cells
Cytochrome P450 2C9 = Cytochrome P450 2C9 (Homo sapiens, UniProt P11712); assay: Inhibition of CYP2C9 in human liver microsomes after 30 mins in presence of NADPH; assay type: ADME
[10] = target: Sodium channel protein type 5 subunit alpha (Homo sapiens, UniProt Q14524); assay: Inhibition of human NaV1.5 expressed in HEK293 cells by fluorescence-based thallium flux assay; assay type: cell-based
[11] = Plasma concentration in rat at 5 mg/kg, iv after 6 hrs; assay type: ADME, organism-based; design: dose 5 mg/kg, route intravenous
Cytochrome P450 2C19 = Cytochrome P450 2C19 (Homo sapiens, UniProt P33261); assay: Inhibition of CYP2C19 in human liver microsomes after 30 mins in presence of NADPH; assay type: ADME
[12] = AUC (0 to 6 hrs) in rat at 5 mg/kg, iv; assay type: ADME, organism-based; design: time < 6 hr, dose 5 mg/kg, route intravenous; conditions: plasma
Hepatitis C virus [13] = assay: Antiviral activity against Hepatitis C virus Con1 genotype 1b infected in human HuH7 cells after 3 days by FRET assay; assay type: functional, organism-based, Hepacivirus hominis; conditions: isolate Con1, Huh-7, 72 h
[14] = target: Voltage-gated inwardly rectifying potassium channel KCNH2 (Homo sapiens, UniProt Q12809); assay: Inhibition of human ERG by fluorescence-based thallium flux assay
[15] = Clearance in rat at 5 mg/kg, iv and 10 mg/kg, po; assay type: ADME, organism-based; conditions: in vivo
Cytochrome P450 3A4 = Cytochrome P450 3A4 (Homo sapiens, UniProt P08684); assay: Inhibition of CYP3A4 in human liver microsomes using benzyloxyresorufin as substrate after 30 mins in presence of NADPH; assay type: ADME
Hepatitis C virus [16] = assay: Antiviral activity against Hepatitis C virus H77c genotype 1a infected in human HuH7 cells after 3 days by FRET assay; assay type: functional, organism-based, Hepacivirus hominis; conditions: genotype 1a H77, Huh-7, 72 h
[17] = target: T1, Nuclear receptor subfamily 1 group I member 2 (Homo sapiens, UniProt O75469); assay: Transactivation of human PXR expressed in human HepG2 cells by luciferase reporter gene assay; assay type: cell-based
T1 sequence (O75469 whole entry): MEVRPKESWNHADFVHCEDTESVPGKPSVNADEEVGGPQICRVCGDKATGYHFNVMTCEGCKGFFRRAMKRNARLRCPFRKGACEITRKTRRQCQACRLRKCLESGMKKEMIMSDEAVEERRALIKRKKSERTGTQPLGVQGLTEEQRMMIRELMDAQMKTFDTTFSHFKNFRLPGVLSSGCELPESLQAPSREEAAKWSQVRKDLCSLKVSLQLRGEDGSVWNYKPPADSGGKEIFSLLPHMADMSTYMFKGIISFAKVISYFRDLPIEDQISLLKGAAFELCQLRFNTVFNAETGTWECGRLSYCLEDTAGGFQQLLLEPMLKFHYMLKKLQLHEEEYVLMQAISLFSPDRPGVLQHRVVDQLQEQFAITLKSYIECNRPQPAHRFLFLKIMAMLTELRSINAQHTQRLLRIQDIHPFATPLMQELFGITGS

Cytochrome P450 1A2 = target: T2, Cytochrome P450 1A2 (Homo sapiens, UniProt P05177); assay: Inhibition of CYP1A2 in human liver microsomes after 30 mins in presence of NADPH; assay type: ADME
T2 sequence (P05177 whole entry): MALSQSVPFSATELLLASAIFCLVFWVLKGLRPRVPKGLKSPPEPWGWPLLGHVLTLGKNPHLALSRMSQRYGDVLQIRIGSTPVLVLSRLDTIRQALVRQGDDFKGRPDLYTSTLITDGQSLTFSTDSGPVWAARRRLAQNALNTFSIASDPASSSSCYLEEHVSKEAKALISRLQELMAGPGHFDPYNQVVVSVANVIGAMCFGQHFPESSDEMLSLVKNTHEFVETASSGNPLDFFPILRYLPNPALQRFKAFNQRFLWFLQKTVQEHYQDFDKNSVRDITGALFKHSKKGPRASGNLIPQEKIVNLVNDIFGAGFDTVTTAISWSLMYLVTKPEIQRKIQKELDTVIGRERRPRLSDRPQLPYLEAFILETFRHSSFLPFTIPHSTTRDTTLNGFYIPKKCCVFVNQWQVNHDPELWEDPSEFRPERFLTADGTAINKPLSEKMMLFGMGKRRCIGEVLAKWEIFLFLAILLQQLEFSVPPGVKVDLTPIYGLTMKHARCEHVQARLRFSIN

[18] = Permeability of the compound at pH 7.4 by PAMPA; assay type: physicochemical; conditions: read-out: permeability
[19] = Ratio of drug level in liver to plasma in rat at 5 mg/kg, iv after 4 hrs; assay type: ADME, organism-based; design: dose 5 mg/kg, route intravenous
[20] = Drug uptake in rat liver at 5 mg/kg, iv after 4 hrs; assay type: ADME, organism-based; design: dose 5 mg/kg, route intravenous; conditions: read-out: Drug uptake
[21] = Plasma concentration in rat at 5 mg/kg, iv after 4 hrs; assay type: ADME, organism-based; design: dose 5 mg/kg, route intravenous
[22] = AUC (0 to 4 hrs) in rat at 5 mg/kg, iv; assay type: ADME, organism-based; design: time < 4 hr, dose 5 mg/kg, route intravenous; conditions: plasma
[23] = Plasma concentration in rat at 10 mg/kg, po after 4 hrs; assay type: ADME, organism-based; design: dose 10 mg/kg, route oral
[24] = Plasma clearance in rat at 5 mg/kg, iv; assay type: ADME, organism-based; design: dose 5 mg/kg, route intravenous
[25] = AUC (0 to 4 hrs) in rat at 10 mg/kg, po; assay type: ADME, organism-based; design: time < 4 hr, dose 10 mg/kg, route oral; conditions: plasma
[26] = Drug uptake in rat liver at 10 mg/kg, po after 4 hrs; assay type: ADME, organism-based; design: dose 10 mg/kg, route oral; conditions: read-out: Drug uptake
Hepatitis C virus [27] = assay: Antiviral activity against Hepatitis C virus genotype 1a by cell-based assay; assay type: functional, organism-based, Hepacivirus hominis; conditions: subtype 1a
Hepatitis C virus [28] = assay: Antiviral activity against Hepatitis C virus genotype 1b by cell-based assay; assay type: functional, organism-based, Hepacivirus hominis

Voltage-gated inwardly rectifying potassium channel KCNH2, sequence (Q12809 whole entry): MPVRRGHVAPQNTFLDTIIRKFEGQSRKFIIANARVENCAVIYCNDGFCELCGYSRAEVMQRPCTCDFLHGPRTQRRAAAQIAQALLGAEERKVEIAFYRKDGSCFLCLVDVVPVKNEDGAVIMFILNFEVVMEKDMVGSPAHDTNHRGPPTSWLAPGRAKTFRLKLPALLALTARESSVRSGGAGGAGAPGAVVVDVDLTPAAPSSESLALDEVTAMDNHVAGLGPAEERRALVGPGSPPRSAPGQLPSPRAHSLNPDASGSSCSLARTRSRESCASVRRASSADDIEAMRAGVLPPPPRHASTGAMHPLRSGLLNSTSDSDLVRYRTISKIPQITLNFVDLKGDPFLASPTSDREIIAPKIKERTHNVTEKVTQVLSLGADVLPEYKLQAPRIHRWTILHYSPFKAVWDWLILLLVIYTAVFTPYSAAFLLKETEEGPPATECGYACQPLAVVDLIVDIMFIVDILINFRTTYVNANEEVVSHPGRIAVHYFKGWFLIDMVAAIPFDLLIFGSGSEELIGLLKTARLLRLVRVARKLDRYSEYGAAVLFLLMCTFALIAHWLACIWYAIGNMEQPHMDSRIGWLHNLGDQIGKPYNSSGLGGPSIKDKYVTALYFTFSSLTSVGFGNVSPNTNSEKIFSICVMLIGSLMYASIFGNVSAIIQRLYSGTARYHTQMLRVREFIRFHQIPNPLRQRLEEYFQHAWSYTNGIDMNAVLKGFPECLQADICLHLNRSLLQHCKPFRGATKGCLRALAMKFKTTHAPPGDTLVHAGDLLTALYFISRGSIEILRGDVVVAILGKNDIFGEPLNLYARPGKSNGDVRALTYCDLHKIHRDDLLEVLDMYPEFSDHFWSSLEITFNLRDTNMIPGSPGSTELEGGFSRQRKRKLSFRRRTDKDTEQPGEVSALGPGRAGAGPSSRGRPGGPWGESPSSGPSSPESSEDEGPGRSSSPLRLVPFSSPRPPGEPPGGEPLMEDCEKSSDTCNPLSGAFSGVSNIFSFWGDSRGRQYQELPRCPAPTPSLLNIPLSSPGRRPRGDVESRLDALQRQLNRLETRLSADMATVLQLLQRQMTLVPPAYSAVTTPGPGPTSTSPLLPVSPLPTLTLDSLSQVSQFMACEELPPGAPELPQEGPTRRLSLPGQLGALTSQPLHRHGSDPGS
Cytochrome P450 2C19, sequence (P33261 whole entry): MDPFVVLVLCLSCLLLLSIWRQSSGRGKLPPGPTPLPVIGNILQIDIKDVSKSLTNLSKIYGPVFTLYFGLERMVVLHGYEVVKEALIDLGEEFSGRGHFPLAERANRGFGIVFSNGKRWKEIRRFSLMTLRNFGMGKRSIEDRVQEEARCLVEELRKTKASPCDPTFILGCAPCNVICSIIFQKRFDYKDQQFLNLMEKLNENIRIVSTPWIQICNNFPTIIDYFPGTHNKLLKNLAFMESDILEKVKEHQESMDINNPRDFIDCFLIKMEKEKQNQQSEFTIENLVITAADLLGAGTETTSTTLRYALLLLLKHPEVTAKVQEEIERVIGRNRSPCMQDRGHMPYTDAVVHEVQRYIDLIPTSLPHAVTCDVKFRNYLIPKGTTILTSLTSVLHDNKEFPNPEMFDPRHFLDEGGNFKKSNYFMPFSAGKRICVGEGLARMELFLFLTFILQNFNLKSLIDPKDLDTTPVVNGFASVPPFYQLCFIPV
Sodium channel protein type 5 subunit alpha, sequence (Q14524 whole entry): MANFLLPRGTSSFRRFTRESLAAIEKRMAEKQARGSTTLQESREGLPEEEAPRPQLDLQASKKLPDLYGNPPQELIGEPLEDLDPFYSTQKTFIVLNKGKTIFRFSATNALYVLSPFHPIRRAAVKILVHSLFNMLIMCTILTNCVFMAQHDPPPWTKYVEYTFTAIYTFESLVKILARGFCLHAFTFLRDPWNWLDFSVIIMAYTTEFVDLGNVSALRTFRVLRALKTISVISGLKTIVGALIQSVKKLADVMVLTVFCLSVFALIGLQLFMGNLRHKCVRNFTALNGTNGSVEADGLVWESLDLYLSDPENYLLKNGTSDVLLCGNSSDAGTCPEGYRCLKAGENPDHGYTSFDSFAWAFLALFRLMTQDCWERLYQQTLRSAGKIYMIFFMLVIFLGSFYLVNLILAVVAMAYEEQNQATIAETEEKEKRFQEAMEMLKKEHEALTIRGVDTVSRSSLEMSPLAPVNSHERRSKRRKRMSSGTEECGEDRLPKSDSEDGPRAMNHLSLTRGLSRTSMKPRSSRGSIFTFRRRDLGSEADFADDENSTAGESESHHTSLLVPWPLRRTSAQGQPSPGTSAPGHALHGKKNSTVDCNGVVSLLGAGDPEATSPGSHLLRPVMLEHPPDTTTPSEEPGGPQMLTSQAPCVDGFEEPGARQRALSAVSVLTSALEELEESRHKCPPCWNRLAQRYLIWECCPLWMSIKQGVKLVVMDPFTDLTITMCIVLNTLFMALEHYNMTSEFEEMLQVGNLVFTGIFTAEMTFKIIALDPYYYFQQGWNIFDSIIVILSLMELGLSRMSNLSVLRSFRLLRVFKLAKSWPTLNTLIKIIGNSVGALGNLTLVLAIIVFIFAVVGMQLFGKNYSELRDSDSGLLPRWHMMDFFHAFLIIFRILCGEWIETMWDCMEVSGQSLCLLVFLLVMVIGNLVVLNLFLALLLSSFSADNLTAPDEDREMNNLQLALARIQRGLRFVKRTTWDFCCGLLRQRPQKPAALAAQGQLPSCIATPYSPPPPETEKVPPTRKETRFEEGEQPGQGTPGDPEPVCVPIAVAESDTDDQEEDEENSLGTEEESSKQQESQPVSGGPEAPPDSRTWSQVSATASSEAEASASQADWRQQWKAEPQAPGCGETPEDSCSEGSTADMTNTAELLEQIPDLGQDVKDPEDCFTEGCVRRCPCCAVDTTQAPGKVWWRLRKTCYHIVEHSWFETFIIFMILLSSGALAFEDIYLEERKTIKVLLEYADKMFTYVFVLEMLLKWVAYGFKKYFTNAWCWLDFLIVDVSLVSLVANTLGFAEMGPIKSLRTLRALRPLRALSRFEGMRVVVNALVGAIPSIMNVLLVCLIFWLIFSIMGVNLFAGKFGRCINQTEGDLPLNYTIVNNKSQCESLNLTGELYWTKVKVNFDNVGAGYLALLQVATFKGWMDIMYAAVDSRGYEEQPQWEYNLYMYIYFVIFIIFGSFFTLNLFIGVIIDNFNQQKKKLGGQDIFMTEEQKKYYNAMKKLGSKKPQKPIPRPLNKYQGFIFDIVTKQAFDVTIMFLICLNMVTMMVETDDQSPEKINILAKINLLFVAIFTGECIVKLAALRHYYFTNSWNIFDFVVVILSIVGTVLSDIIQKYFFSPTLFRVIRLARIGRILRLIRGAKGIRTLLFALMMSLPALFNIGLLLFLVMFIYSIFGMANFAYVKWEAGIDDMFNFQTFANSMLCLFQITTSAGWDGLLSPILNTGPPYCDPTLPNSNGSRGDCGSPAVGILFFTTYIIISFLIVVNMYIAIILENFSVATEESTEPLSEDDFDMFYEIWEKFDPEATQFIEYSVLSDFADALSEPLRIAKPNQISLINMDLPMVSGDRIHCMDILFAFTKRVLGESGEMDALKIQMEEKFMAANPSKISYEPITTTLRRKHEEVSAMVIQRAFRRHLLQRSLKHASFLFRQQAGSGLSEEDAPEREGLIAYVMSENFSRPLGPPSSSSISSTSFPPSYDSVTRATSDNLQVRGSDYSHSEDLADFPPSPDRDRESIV
Cytochrome P450 3A4, sequence (P08684 whole entry): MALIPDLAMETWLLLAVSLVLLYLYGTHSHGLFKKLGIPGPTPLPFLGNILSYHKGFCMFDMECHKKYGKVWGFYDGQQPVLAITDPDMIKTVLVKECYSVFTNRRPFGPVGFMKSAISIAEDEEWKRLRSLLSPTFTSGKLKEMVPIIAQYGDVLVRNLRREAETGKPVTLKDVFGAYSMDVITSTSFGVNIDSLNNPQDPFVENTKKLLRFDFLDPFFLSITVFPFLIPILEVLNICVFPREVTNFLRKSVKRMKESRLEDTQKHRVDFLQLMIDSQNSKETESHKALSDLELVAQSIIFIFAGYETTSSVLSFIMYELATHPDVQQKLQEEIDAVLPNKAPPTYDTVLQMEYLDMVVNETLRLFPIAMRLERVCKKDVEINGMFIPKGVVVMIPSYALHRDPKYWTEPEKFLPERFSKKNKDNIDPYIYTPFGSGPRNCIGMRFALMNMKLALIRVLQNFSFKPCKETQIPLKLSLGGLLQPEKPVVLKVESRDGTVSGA
Cytochrome P450 2C9, sequence (P11712 whole entry): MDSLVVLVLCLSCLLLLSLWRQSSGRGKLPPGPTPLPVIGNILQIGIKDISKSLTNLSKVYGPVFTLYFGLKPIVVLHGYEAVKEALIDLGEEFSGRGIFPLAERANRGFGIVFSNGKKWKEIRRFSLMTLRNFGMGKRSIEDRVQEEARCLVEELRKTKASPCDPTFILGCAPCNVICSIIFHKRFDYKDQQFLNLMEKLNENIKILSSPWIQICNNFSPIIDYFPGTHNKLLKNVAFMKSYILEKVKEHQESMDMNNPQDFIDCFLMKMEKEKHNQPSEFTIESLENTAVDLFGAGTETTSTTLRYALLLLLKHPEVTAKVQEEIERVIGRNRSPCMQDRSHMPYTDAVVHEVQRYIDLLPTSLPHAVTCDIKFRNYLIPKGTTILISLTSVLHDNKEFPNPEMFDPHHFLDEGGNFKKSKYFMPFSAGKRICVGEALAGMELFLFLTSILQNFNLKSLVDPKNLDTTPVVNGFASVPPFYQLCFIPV

COc1ccc2c(c1)[C@@H]1C[C@]1(C(=O)N1C3CC1CN(C)C3)Cn1c-2c(C2CCCCC2)c2ccc(C(=O)NS(=O)(=O)N(C)C)cc21
EC50 (Hepatitis C virus [1]): 0.028 µM
concentration at 6 h [2]: 17500 nM
EC50 (Cytochrome P450 2D6): > 40 µM
Stability (Liver microsome [3]): 98%
solubility [4]: 760 µg/mL (≈ 1180 µM)
concentration at 6 h [5]: 14300 nM
Stability (Liver microsome [6]): 98%
EC50 (HepG2): 25 µM
concentration at 6 h [7]: 440 nM
AUC(0-t) at 6 h [8]: 4.93 µM·h
CC50 [9]: 13 µM
EC50 (Cytochrome P450 2C9): > 40 µM
EC50 [10]: 30 µM
concentration at 6 h [11]: 409 nM
EC50 (Cytochrome P450 2C19): > 40 µM
AUC(0-t) at 6 h [12]: 11.2 µM·h
EC50 (Hepatitis C virus [13]): 0.005 µM
EC50 [14]: 20 µM
clearance [15]: 9 mL/min/kg
EC50 (Cytochrome P450 3A4): 14 µM
EC50 (Hepatitis C virus [16]): 0.006 µM
EC50 [17]: > 50 µM
EC50 (Cytochrome P450 1A2): > 40 µM
Papp [18]: 43 ×10⁻⁶ cm/s

COc1ccc2c(c1)C1CC1(C(=O)N1CC(O)C1)Cn1c-2c(C2CCCCC2)c2ccc(C(=O)NS(=O)(=O)N(C)C)cc21 (racemic)
EC50 (Hepatitis C virus [1]): 0.059 µM
Stability (Liver microsome [3]): 95%
Kp at 4 h [19]: > 200
solubility [4]: 57 µg/mL (≈ 93.9 µM)
concentration at 4 h [20]: 5000 nM
Stability (Liver microsome [6]): 84%
concentration at 4 h [21]: 17 nM
AUC(0-t) at 4 h [22]: 1.42 µM·h
CC50 [9]: > 10 µM
concentration at 4 h [23]: 11 nM
clearance [24]: 96 mL/min/kg
AUC(0-t) at 4 h [25]: 0.041 µM·h
EC50 (Hepatitis C virus [13]): 0.038 µM
EC50 (Hepatitis C virus [16]): 0.045 µM
EC50 [17]: > 50 µM
concentration at 4 h [26]: 8800 nM
Papp [18]: 25 ×10⁻⁶ cm/s

Cn1c(C2(NC(=O)c3ccc4c(C5CCCC5)c(-c5ncc(Br)cn5)n(C)c4c3)CCC2)nc2ccc(/C=C/C(=O)O)cc21 [DELEOBUVIR]
EC50 (Hepatitis C virus [27]): 0.043 µM
EC50 (Hepatitis C virus [28]): 0.017 µM
